“And” between values parts separate entries of the source, which are not always exact repeats. Equal entries are not always repeated. Where two headings read alike, the source gives them in different places. Marks after values point to notes of the source that are not given here.
Columns and labels:
SK-OV-3 = test system: SK-OV-3; set-up: method as in PMID 26204510; conditions: read-out: IC50 in Matrigel invasion assay (SK-OV-3); cited from earlier work
Aqueous solubility = format: physicochemical; conditions: test concentration 200 μM
Description: (§1) Table 3 In vitro physicochemical, stability and metabolism data. | column: Value

[1] = Plasma PK study (IV and PO) in male Sprague-Dawley rats; format: in vivo, rat
Description: Six male Sprague-Dawley rats (200–350 g) were obtained from Hilltop Labs. Animals were assigned randomly to two groups (IV or PO) of 3 upon arrival. Duration of acclimation was approximately two days. Animals were healthy at the start of the trial.
Animals subjected to IV dosing were fitted with a jugular vein cannula (JVC) under isoflurane anesthesia (induction 4%, maintenance 2.0%, oxygen 1 L/min) and under an external heating source. Post-operative analgesia was provided in the form of 2.5–5 mg/kg of ketoprofen subcutaneously. Benzylpenicillin (60 mg) was given intramuscularly to prevent infection. Sterile 0.9% NaCl was injected subcutaneously under the back skin using a 21G needle during recovery to replace fluid loss. Animals were placed under a heat lamp and monitored until they regained full consciousness. […] Surgically modified animals were housed individually, monitored hourly for the first 4 h and then daily over a 2-day recovery period.
Animals were maintained in a well-controlled temperature (20–24°C) and humidity (30%-70%) environment with 12 h light/dark cycles. Conventional cages with wood chip bedding were used. Animals were identified by a cage label. The study was not blinded. Food was withheld from all animals for a minimum of twelve hours prior to test article administration and returned at approximately 4 h post-dose. Water was supplied ad libitum.
C16 was dosed in cassette with two undisclosed compounds of similar chemical structure. Dosing solutions were prepared in 100% DMSO on the day of dosing. The concentration of C16 was 1 and 5 mg/mL for IV and PO dosing, respectively. C16 was administered at 1 mg/kg IV via JVC or at 10 mg/kg PO.
Sampling took place pre-dose, 5, 15, 30 min, 1, 2, 4, and 8 h post-dose. Blood samples (0.3 mL) were collected via the JVC, placed into chilled tubes containing sodium heparin and kept on ice until centrifugation. Plasma preparation involved centrifugation at a temperature of 2 to 8°C at 3,000 g for 5 min. Plasma samples were stored frozen at -70°C until analysis. No necropsy was performed.
Pharmacokinetic parameters were estimated by a non-compartmental model using WinNonlin (v5.2.1 or higher) software. The maximum plasma/blood concentrations (c0) after IV dosing were estimated by extrapolation of the first two time points back to t = 0. The maximum blood concentration (cmax) and the time to reach maximum blood drug concentration (tmax) after PO dosing were derived from the data. The area under the time-concentration curve (AUC) was calculated using the linear trapezoidal rule with calculation to the last quantifiable data point, and with extrapolation to infinity if applicable. Plasma/blood half-life (t1/2) was calculated from 0.693/slope of the terminal elimination phase. Mean residence time (MRT) was calculated by dividing the area under the moment curve (AUMC) by the AUC. Clearance (CL) was calculated from dose/AUC. Steady-state volume of distribution (Vss) was calculated from CL*MRT. Bioavailability was determined by dividing the individual dose-normalized PO AUC values by the respective average dose-normalized intravenous (IV) AUC value. Samples that were below the limit of quantification were not used in the calculation of averages, and were treated as zero for pharmacokinetic data analysis. […]
(mAU.s) (mAU.s) peak area) (mAU.s) (mAU.s) peak area) (mAU.s) (mAU.s) peak area) […]
a. Dosing solution preparation
The dosing solution was prepared as a cassette to contain all three test articles in the same solution. IV dosing was fixed at 2 mg/mL of C16 and the two other test articles in neat DMSO as the vehicle, with a dosing volume 0.5 mL/kg (slow injection). PO dosing was set at 10 mg/mL of C16 and the two other test articles in neat DMSO as the vehicle, with a dosing volume of 1 mL/kg.
Individual plasma concentrations for C16 are shown in Table F and Table G. All data are expressed as ng/mL of the […]
free drug. […]

[2] = Half-life in PBS, simulated gastric fluid and simulated intestinal fluid; format: physicochemical; conditions: 1 μM
Description: as §1

[3] = male, Sprague-Dawley, rat, plasma, iv, 1 mg/kg, male Sprague-Dawley rat, IV 1 mg/kg, vehicle DMSO, average
[4] = male, Sprague-Dawley, rat, plasma, iv, 1 mg/kg, rat plasma, IV 1 mg/kg, individual animals 1-3
[5] = male, Sprague-Dawley, rat, plasma, po, 10 mg/kg, male Sprague-Dawley rat, PO 10 mg/kg, vehicle DMSO, average
[6] = male, Sprague-Dawley, rat, plasma, po, 10 mg/kg, male Sprague-Dawley rat, PO 10 mg/kg, vehicle DMSO, calculated for two out of three animals
[7] = plasma, male Sprague-Dawley rat, IV 1 mg/kg, vehicle DMSO, average
[8] = rat plasma, IV 1 mg/kg, individual animals 1-3, 1 mg/kg
[9] = rat plasma, PO 10 mg/kg, individual animals 4-6, 10 mg/kg
[10] = rat plasma, PO 10 mg/kg, individual animals 5-6, 10 mg/kg

COc1cc(C(=O)/C=C/c2ccc(F)cc2)cc(OC)c1OC [C16, 4-fluoro-3’,4’,5’-trimethoxychalcone]
IC50 (SK-OV-3): < 100 nM
Aqueous solubility (Aqueous solubility; PBS, pH 7.4): 7.9 µM
Aqueous solubility (Aqueous solubility; simulated gastric fluid): 9.1 µM
Aqueous solubility (Aqueous solubility; simulated intestinal fluid): 2.4 µM
AUC(0-inf) [1, 3]: 215 ng·h/mL
AUC(0-t) [1, 3]: 211 ng·h/mL
MRT last [1, 3]: 0.76 h
clearance [1, 3]: 82.5 mL/min/kg
half-life [1, 3]: 1.93 h
C0 ([1]; male, Sprague-Dawley, rat, plasma, iv, 1 mg/kg, male Sprague-Dawley rat, IV 1 mg/kg, vehicle DMSO, average, extrapolated to t = 0): 1260 ng/mL
Vd ([1]; male, Sprague-Dawley, rat, plasma, iv, 1 mg/kg, plasma, male Sprague-Dawley rat, IV 1 mg/kg, vehicle DMSO, average, read-out: Vss): 4.77 L/kg
Tmax ([1]; male, Sprague-Dawley, rat, plasma, iv, 1 mg/kg, plasma, male Sprague-Dawley rat, IV 1 mg/kg, vehicle DMSO, average, read-out: tmax): 0 h
AUC(0-inf) [1, 4]: 227 ng·h/mL
AUC(0-t) [1, 4]: 224 ng·h/mL
MRT last [1, 4]: 0.7 h
clearance [1, 4]: 73.3 mL/min/kg
half-life [1, 4]: 1.8 h
Tmax ([1]; male, Sprague-Dawley, rat, plasma, iv, 1 mg/kg, rat plasma, IV 1 mg/kg, individual animals 1-3, read-out: tmax): 0 h
concentration at 0.5 h ([1]; male, Sprague-Dawley, rat, plasma, iv, 1 mg/kg, rat, IV 1 mg/kg, 0.50 h, animals 1-3, read-out: Individual plasma concentration): 32.4 ng/mL
concentration at 1 h ([1]; male, Sprague-Dawley, rat, plasma, iv, 1 mg/kg, rat, IV 1 mg/kg, 1.0 h, animals 1-3, read-out: Individual plasma concentration): 23.1 ng/mL
concentration at 2 h ([1]; male, Sprague-Dawley, rat, plasma, iv, 1 mg/kg, rat, IV 1 mg/kg, 2.0 h, animals 1-3, read-out: Individual plasma concentration): 14.3 ng/mL
concentration at 4 h ([1]; male, Sprague-Dawley, rat, plasma, iv, 1 mg/kg, rat, IV 1 mg/kg, 4.0 h, animals 1-3, read-out: Individual plasma concentration): 4.94 ng/mL
concentration at 8 h ([1]; male, Sprague-Dawley, rat, plasma, iv, 1 mg/kg, rat, IV 1 mg/kg, 8.0 h, animals 1-3, read-out: Individual plasma concentration): 1.34 ng/mL
AUC(0-t) [1, 5]: 146 ng·h/mL
MRT last [1, 5]: 3.67 h
AUC(0-inf) [1, 6]: 161 ng·h/mL
half-life [1, 6]: 3.67 h
Bioavailability ([1]; male, Sprague-Dawley, rat, plasma, po, 10 mg/kg, plasma, male Sprague-Dawley rat, PO 10 mg/kg, vehicle DMSO, average, read-out: Bioavailability): 6.91%
cmax ([1]; male, Sprague-Dawley, rat, plasma, po, 10 mg/kg, plasma, male Sprague-Dawley rat, PO 10 mg/kg, vehicle DMSO, average, read-out: cmax): 32.2 ng/mL
Tmax ([1]; male, Sprague-Dawley, rat, plasma, po, 10 mg/kg, plasma, male Sprague-Dawley rat, PO 10 mg/kg, vehicle DMSO, average, read-out: tmax): 2.83 h
MRT last ([1]; male, Sprague-Dawley, rat, plasma, po, 10 mg/kg, rat plasma, PO 10 mg/kg, individual animals 4-6): 4.92 h
concentration at 0.5 h ([1]; male, Sprague-Dawley, rat, plasma, po, 10 mg/kg, rat, PO 10 mg/kg, 0.50 h, animals 4-6, read-out: Individual plasma concentration): 22.5 ng/mL
concentration at 2 h ([1]; male, Sprague-Dawley, rat, plasma, po, 10 mg/kg, rat, PO 10 mg/kg, 2.0 h, animals 4-6, read-out: Individual plasma concentration): 15.1 ng/mL
Dose-normalized AUClast [1, 7]: 211 kg·ng·h/mL/mg
Dose-normalized AUC∞ [1, 7]: 215 kg·ng·h/mL/mg
Dose-normalized AUClast ([1]; plasma, male Sprague-Dawley rat, PO 10 mg/kg, vehicle DMSO, average): 14.6 kg·ng·h/mL/mg
Dose-normalized AUC∞ ([1]; plasma, male Sprague-Dawley rat, PO 10 mg/kg, vehicle DMSO, calculated for two out of three animals): 16.1 ^f h∙kg ng/mL/mg
AUClast [1, 8]: 145 ng·h/mL and 264 ng·h/mL
AUC∞ [1, 8]: 149 ng·h/mL and 269 ng·h/mL
CL [1, 8]: 112 mL/min/kg and 62 mL/min/kg
MRTlast [1, 8]: 0.87 h and 0.71 h
Vss [1, 8]: 3.73 L/kg and 7.30 L/kg and 3.27 L/kg
c0 [1, 8]: 1718 ng/mL and 659 ng/mL and 1395 ng/mL
t1/2 [1, 8]: 2.00 h
AUClast [1, 9]: 236 ng·h/mL and 88.0 ng·h/mL and 114 ng·h/mL
Bioavailability [1, 9]: 11.2% and 4.17% and 5.39%
Dose Normalized AUClast [1, 9]: 23.6 kg·ng·h/mL/mg and 8.80 kg·ng·h/mL/mg and 11.4 kg·ng·h/mL/mg
MRTlast [1, 9]: 3.60 h and 2.48 h
Tmax [1, 9]: 8.00 h
cmax [1, 9]: 47.1 ng/mL and 15.9 ng/mL and 33.5 ng/mL
AUC∞ [1, 10]: 219 ng·h/mL
Dose Normalized AUC∞ [1, 10]: 10.2 kg·ng·h/mL/mg and 21.9 kg·ng·h/mL/mg
t1/2 [1, 10]: 11.0 h
Adverse effects after intravenous and oral administration ([1]; rat, 1 mg/kg IV and 10 mg/kg PO, cassette in 100% DMSO): No adverse effects were observed
Individual plasma concentration ([1]; rat, IV 1 mg/kg, 0.083 h, animals 1-3, 1 mg/kg): 568 ng/mL and 345 ng/mL and 693 ng/mL
Individual plasma concentration ([1]; rat, IV 1 mg/kg, 0.25 h, animals 1-3, 1 mg/kg): 62.1 ng/mL and 94.6 ng/mL and 171 ng/mL
Individual plasma concentration ([1]; rat, IV 1 mg/kg, 0.50 h, animals 1-3, 1 mg/kg): 31.9 ng/mL and 63.2 ng/mL
Individual plasma concentration ([1]; rat, IV 1 mg/kg, 1.0 h, animals 1-3, 1 mg/kg): 19.1 ng/mL and 25.4 ng/mL
Individual plasma concentration ([1]; rat, IV 1 mg/kg, 2.0 h, animals 1-3, 1 mg/kg): 8.99 ng/mL and 12.6 ng/mL
Individual plasma concentration ([1]; rat, IV 1 mg/kg, 4.0 h, animals 1-3, 1 mg/kg): 4.34 ng/mL and 6.41 ng/mL
Individual plasma concentration ([1]; rat, IV 1 mg/kg, 8.0 h, animals 1-3, 1 mg/kg): 1.12 ng/mL and 1.58 ng/mL
Individual plasma concentration ([1]; rat, PO 10 mg/kg, 0.25 h, animals 4-6, 10 mg/kg): 21.8 ng/mL and 15.9 ng/mL and 33.5 ng/mL
Individual plasma concentration ([1]; rat, PO 10 mg/kg, 0.50 h, animals 4-6, 10 mg/kg): 14.8 ng/mL and 24.0 ng/mL
Individual plasma concentration ([1]; rat, PO 10 mg/kg, 1.0 h, animals 4-6, 10 mg/kg): 28.3 ng/mL and 13.6 ng/mL and 22.0 ng/mL
Individual plasma concentration ([1]; rat, PO 10 mg/kg, 2.0 h, animals 4-6, 10 mg/kg): 11.4 ng/mL and 18.2 ng/mL
Individual plasma concentration ([1]; rat, PO 10 mg/kg, 4.0 h, animals 4-6, 10 mg/kg): 27.9 ng/mL and 11.7 ng/mL and 13.6 ng/mL
Individual plasma concentration ([1]; rat, PO 10 mg/kg, 8.0 h, animals 4-6, 10 mg/kg): 47.1 ng/mL and 8.04 ng/mL and 5.96 ng/mL
half-life ([2]; PBS, pH 7.4): >4 h
half-life ([2]; simulated gastric fluid): >1 h
half-life ([2]; simulated intestinal fluid): >4 h

From paper PMC5823406, “Vehicle development, pharmacokinetics and toxicity of the anti-invasive agent 4-fluoro-3’,4’,5’-trimethoxychalcone in rodents” (PLoS ONE, 2018)
